Here are results for 5 compounds from patent US6423869B1, “Polyol-amino acid compounds having anti-helicobacter pylori activity” (Takeda Chemical Industries, Inc., priority 1997, dated 2002).

Values after ≈ are worked out from the molar mass of the structure shown.

For test [1], the system named is Helicobacter pylori TN2F4. Description: In vivo antibacterial test in infected mice. The settings on record: mice (Crj: ICR), 50 mg/kg orally twice daily for 2 days, cleared/total (%), hydrochloride. The protocol:
In vivo Antibacterial Test
Mice (Crj: ICR, male, aged 5 weeks) were deprived of food for 20 hours and 6.17×10^7 CFU/mouse of Helicobacter pylori TN2F4 was inoculated into the stomach. Starting 11 days after infection, 50 mg/kg of the test compound suspended in 0.5% methyl cellulose/water was adminstered orally twice. daily, in the morning and evening, for 2 consecutive days. On the day following the last dose, the stomach was isolated from the infected mouse and homogenized and a 10-fold dilution series of the homogenate was inoculated on activated charcoal-modified Skirrow medium. Cultivation was carried out microaerobically at 37° C. for 4 days and the eradication rate was determined according to growth of the bacteria.
The number of bacteria was expressed in mean±standard error and the statistical analysis was made in comparison with the control group by the Dunnett method.

The subject of test [2] is Helicobacter pylori (NCTC 11637). Kind of test: In vitro antibacterial test, agar dilution method (MIC). The settings on record: NCTC11637, 96 h, 7% horse blood-Brucella agar, 37° C., 4 days, read-out: MIC (minimal inhibitory concentration). The format is cell-based. (In agar dilution the substance is mixed into plates at graded concentrations.)
The test system of test [3] is Helicobacter pylori TN2GF4. Kind of test: Gastric infection in mongolian gerbils, repetitive administration. The class given is in vivo. The protocol:
Five-week-old MON/Jms/Gbs mongolian gerbils were inoculated intragastrically with 10^7.58 CFU of Helicobacter pylori TN2GF4. Four weeks after infection, a compound of the Example 47, suspended in 0.5% methyl cellulose, was administered orally at a dose of 30 mg/kg twice daily for 2 days. The animals were killed on the day after the final treatment. Stomachs were removed and homogenized with 3 ml of brucella broth, and the bacterial count in the homogenates was determined by serial dilution and titration on modified Skirrow's plates. The plates were incubated at 37° C. for 4 days in a microaerobic atmosphere prior to counting. No detectable Helicobacter pylori in the stomach on the day after final treatment was defined as clearance. Effect of repetitive administration of a compound of the Example 47 against gastric infection caused by H. pylori TN2GF4 in MON/JmsIGbs mongolian gerbils

The test system of test [4] is gram-negative bacteria. The settings on record: cited from earlier work.
[5] abbreviates: 30 mg/kg twice daily for 2 days.

Turning to `CC(C)C[C@H](NC(=O)[C@@H](N)C(C)C)C(=O)N[C@@H](CO)[C@@H](O)[C@@H](O)[C@H](O)C(=O)N[C@@H](CC(=O)O)c1ccccc1.Cl` [HC-70II.HCl, (S)-3-[(2S,3R,4R,5S)-2,3,4,6-tetrahydroxy-5-(L-valyl-L-leucyl)aminohexanoyl]amino-3-phenylpropionate hydrochloride], in test [1], the “Clearance rate (%)” value was 100%. In the case of `CC(C)C[C@H](NC(=O)[C@@H](N)C(C)C)C(=O)N[C@@H](CO)[C@@H](O)[C@@H](O)[C@H](O)C(=O)N[C@@H](CC(=O)O)c1ccccc1` [HC-70II, (S)-3-[(2S,3R,4R,5S)-2,3,4,6-tetrahydroxy-5-(L-valyl-L-leucyl)aminohexanoyl]amino-3-phenylpropionic acid], in test [2], the MIC was found to be 0.025 µg/mL (≈ 0.0451 µM). `C=CC[C@H](N)C(=O)N[C@@H](CO)[C@@H](O)[C@@H](O)[C@H](O)C(=O)N[C@@H](CC(=O)O)c1ccccc1` [Example 47, (S)-3-[(2S,3R,4R,5S)-5-((S)-2-amino-4-pentenoyl)amino-2,3,4,6-tetrahydroxyhexanoyl]amino-3-phenylpropionic acid]: in test [3] (setting [5]), the “clearance attained (gerbils cleared out of total)” value is on record as 2 out of 4 and the “number of infecting organism” value is “decreased the number of infecting organism”. For the same compound, in test [3] (MON/Jms/Gbs mongolian gerbils, 30 mg/kg orally twice daily for 2 days), the “Bacterial recovery Log CFU/gastric wall Mean ± SE” value is 2.23 ± 0.44 Log CFU/gastric wall.

Regarding `NCC1OC(OC2C(N)CC(NC(=O)C(O)C(O)C(O)C(N)CO)C(O)C2OC2OC(CO)C(O)C2O)C(N)C(O)C1O` (stereo not shown), the “activity against gram-negative bacteria” value in test [4] is recorded as “active against gram-negative bacteria”. `CC(C)C[C@H](NC(=O)[C@@H](NC(=O)[C@@H](N)C(C)C)C(C)C)C(=O)N[C@@H](CO)[C@@H](O)[C@@H](O)[C@H](O)C(=O)N[C@@H](CC(=O)O)c1ccccc1` [HC-70I, (S)-3-[(2S,3R,4R,5S)-2,3,4,6-tetrahydroxy-5-(L-valyl-L-valyl-L-leucyl)aminohexanoyl]amino-3-phenylpropionic acid]: the MIC in test [2] amounted to 0.025 µg/mL (≈ 0.0382 µM).
